# Key:
# [1] = system: histamine-induced vascular permeability in mouse ears; experiment: Modified Miles assay: histamine-induced vascular hyperpermeability (Evans blue extravasation); format: in vivo, mouse (C57BL/6); settings: 15 minutes, before 400 μg histamine
# Procedure: Fifteen (15) minutes after the intracutaneous injection, a vehicle (80% acetone) or histamine (400 μg, manufactured by Molecular Probes) was percutaneously administered to the ventral surface of the ears. To evaluate vascular permeability, Evans blue (50 mg/kg, manufactured by Sigma) was injected intravenously 5 minutes after the administration of histamine. The mice were then euthanized by cervical dislocation 30 minutes after the injection of Evans blue. The ears were dissected, dried at 55° C., and weighed. Extravasated Evans blue present in the ears was extracted in formamide (manufactured by Molecular Probes), and quantified spectrophotometrically (manufactured by PerkinElmer Japan Co., Ltd.) at a wavelength of 610 nm.
# [2] = system: DSS-induced colitis model mice; experiment: DSS-induced colitis: histologic score and colon edema (wet/dry weight ratio); format: in vivo, mouse (C57BL/6); settings: Day 14; 1 mg/kg/day intraperitoneally on Days 9, 11 and 13
# Description: (§1) C57BL/6 strain mice (male, 8 to 12 weeks old) were fed with water containing 2% dextran sodium sulfate (manufactured by MP Bio, hereinafter sometimes referred to as “DSS”) for 4 days to prepare colitis model mice (hereinafter, sometimes referred to as “colitis group” in Examples 7 to 10). The mice taken with DSS for 4 days were fed with normal water from Day 5. The DSS intake start date was defined as Day 1 of the test, and the day before the DSS intake start date was defined as Day 0 of the test. In addition, a group in which C57BL/6 strain mice (male, 8 to 12 weeks old) were fed with normal water was defined as a “healthy group” (the same applies to Examples 8 to 10).
# (§2) To investigate the role of 5,6-DiHETE in the healing phase, the colitis model mice prepared in Example 7(1) were intraperitoneally injected with 5,6-DiHETE (manufactured by Cayman Chemical) (50 μg/kg/day) or HC-067047 (manufactured by Cayman Chemical) (1 mg/kg/day) on Days 9, 11 and 13 of the test (hereinafter, sometimes referred to as “5,6-DiHETE-administered group” and “HC-067047-administered group,” respectively, in Examples 9 and 10). HC-067047 is known to inhibit an increase of calcium ion concentration in endothelial cells.
# Distal colon sections on Day 14 of the test in the healthy group, colitis group, 5,6-DiHETE-administered group and HC-067047-administered group were fixed in 4% paraformaldehyde for 24 hours, embedded in paraffin and cut into 2 μm-thick sections. Hematoxylin staining and eosin staining of these sections were performed according to a conventional method. The histologic score was then decided according to the description of Kruschewski M. et al., Digestive Diseases and Sciences, 46: 2336-2343 (2001) to evaluate the colitis severity.
# The wet/dry weight ratio was used as an index of colon edema (Rachmilewitz D. et al., Gastroenterology, 97: 326-337(1989)). Specifically, the distal colon was collected, and the wet weight was measured. The distal colon was then dried at 60 C for 24 hours, and, thereafter, the dry weight was measured.
# [3] = system: DSS-induced colitis model mice; experiment: DSS-induced colitis: colitis severity (body weight, fecal score, colon length); format: in vivo, mouse (C57BL/6); settings: 1 mg/kg/day intraperitoneally on Days 9, 11 and 13
# Description: as §1
# In order to evaluate colitis severity, the fecal condition was evaluated and the body weight was measured daily for the colitis model mice and healthy group prepared in the above item (1). The fecal condition was evaluated based on the following five-grade fecal scores. Specifically, the fecal scores were 0: normal; 1: soft but still formed; 2: very soft; 3: diarrhea; and 4: bloody feces. In addition, the colon length was measured as an index of the colitis severity.
# as §2
# The colitis severity was determined according to the index and criteria described in Example 7(2).
# HUVECs = experiment: Endothelial barrier function: transendothelial electrical resistance (TER); format: cell-based, human
# Procedure: (§3) In Examples 4 to 6, human umbilical vein endothelial cells (hereinafter, sometimes referred to as “HUVECs”, manufactured by Lonza) were cultured in EGM-2 (manufactured by Lonza K.K.). These cells (passages 4 to 9) were used for experiments after 4-hour starvation in EBM-2 (manufactured by Lonza K.K.) containing 2% FBS.
# The in vitro endothelial barrier function was evaluated by measuring the transendothelial electrical resistance (hereinafter, sometimes referred to as “TER”) of the HUVECs prepared in the above item (1) over time. Specifically, the transendothelial electrical resistance was measured using an xCELLigence Real-Time Cell Analyzer DP system (manufactured by Roche). The system monitors changes in TER across an interdigitated microelectrode at the bottom of tissue culture E-plates (manufactured by Roche). The HUVECs (8,000 cells) were plated on the E-plates and incubated until confluent. Then, the following operation (a) or (b) was performed.
# (a) Each reagent was added to plates on which the HUVECs were cultured, so as to give a vehicle, 1 U/mL thrombin, 1 μM forskolin, or 0.1 μM or 0.3 μM 5,6-DiHETE (FIGS. 4A and 4B).
# (b) A vehicle or […] was added to plates on which the HUVECs were cultured, so as to attain 10 μM. […] Thirty (30) minutes after the addition, 10 μM histamine was added to each plate 30 minutes after the addition (FIGS. 4C and 4D).
# In the above operations (a) and (b), the TER was measured every 60 seconds. For normalization, the cell index value at each time point is shown as a ratio relative to the initial value. The maximum normalized cell index after stimulation was quantified and represented as maximal response. Note that it is known that the disruption of the endothelial barrier function lowers the TER, but that the enhancement of the endothelial barrier function increases the TER.
# NO production in HUVECs = experiment: Histamine-induced NO production (nitrite and nitrate); format: cell-based, human; settings: pretreatment 10 μM, 15 minutes; histamine 10 μM
# Procedure: as §3
# The HUVECs were washed three times with HEPES and incubated in HEPES supplemented with 1 mM L-arginine and 10 μM tetrahydrobiopterin. After equilibration for 30 minutes, the medium was exchanged, and the cells were incubated for additional 30 minutes. […] The conditioned media before and after the stimulation (100 μL each) were collected and centrifuged in each amount of 300 g for 3 minutes. The supernatants were collected, and used to measure nitrite and nitrate, as stable metabolites of NO, by an ENO-20 NOx analyzer (manufactured by Eicom Corporation). The degrees of increases of nitrite and nitrate levels after the stimulation were normalized with cellular protein contents.
# mouse aortae = experiment: Measurement of vascular contraction of aorta (aortic ring specimens); settings: cumulative addition 0.001, 0.01, 0.1 and 1 μM
# Procedure: After excision of the thoracic aortae from untreated mice and removal of fat and connective tissue, the aortae were cut into rings to prepare aortic ring specimens. The ring specimens were immersed in a liquid tank filled with a normal nutrient solution (physiological saline solution containing 136.9 mM NaCl, 5.4 mM KCl, 5.5 mM glucose, 23.8 mM NaHCO3, 1.5 mM CaCl2, 1.0 mM MgCl2 and 0.01 mM EDTA), and two stainless hooks were penetrated through the lumens of the ring specimens. One end of each of the stainless hooks was fixed, and the other end thereof was connected to a force-displacement transducer (T7-30-240, manufactured by Orientec Co., Ltd.) connected to a strain amplifier (3134 strain AMPL, manufactured by Yokogawa Test & Measurement Corporation). Then, the following operation (a), (b) or (c) was performed.
# (a) Norepinephrine (manufactured by Sigma) was cumulatively added into the liquid tank containing the ring specimens after stabilization of each contraction (every about 30 minutes) so as to attain 0.001 μM, 0.01 μM, 0.1 μM and 1 μM, and this group was designated as a “norepinephrine-administered group” (n=4) (FIG. 3A). 5,6-DiHETE was cumulatively added into the liquid tank containing the ring specimen after stabilization of each contraction (every about 30 minutes) so as to attain 0.001 μM, 0.01 μM, 0.1 μM and 1 μM, and this group was designated as a “5,6-DiHETE-administered group” (n=4) (FIG. 3A).
# (b) Norepinephrine was added into the liquid tank containing the ring specimens so as to attain 0.3 μM, and precontraction was induced by administration of norepinephrine (FIG. 3B). Then, after the contraction by the administration of norepinephrine was stabilized, acetylcholine (manufactured by Sigma) was cumulatively added after stabilization of each relaxation reaction (every about 15 minutes) so as to attain 0.03 μM, 0.1 μM, 0.3 μM and 1 μM, and this group was designated as an “acetylcholine-administered group” (FIG. 3B). After the contraction by the administration of norepinephrine was stabilized, 5,6-DiHETE was cumulatively added every about 15 minutes so as to attain 0.001 μM, 0.01 μM, 0.1 μM and 1 μM, and this group was designated as a “5,6-DiHETE-administered group” (n=4) (FIG. 3B).
# (c) In order to verify the effect of 5,6-DiHETE on the acetylcholine administration, norepinephrine was added into the liquid tank containing the ring specimens so as to attain 1 μM. After the contraction by the administration of norepinephrine was stabilized, 5,6-DiHETE or a vehicle (solvent alone) was added so as to attain 1 μM. […]
# In the above operations (a) to (c), tension (contractile force) generated in the aortic ring specimens was measured isometrically over time using the above force-displacement transducer under a resting tension of 3 mN, and recorded.
# anaphylaxis model mice = experiment: Histamine-induced anaphylaxis: blood pressure and body temperature; format: in vivo, mouse (C57BL/6); settings: 200 mg/kg intravenously 15 minutes before histamine 50 mg/kg
# Procedure: Histamine (50 mg/kg) lysed in a physiological saline solution was intravenously administered to C57BL/6 strain mice (male, 8 to 12 weeks old) to prepare anaphylaxis model mice (hereinafter, sometimes referred to as “anaphylaxis group”). […] L-NAME is an NO synthesis inhibitor. As indices of anaphylactic symptoms, a body temperature decrease and a blood pressure decrease were observed.
molecule,measurement,setting,value
CC/C=C\C/C=C\C/C=C\C/C=C\C=C\C(O)C/C=C\CCC(=O)O (stereo not drawn) [7-HDoHE],effect on histamine-induced dye extravasation,[1]; pretreatment 0.1 μg/ear,did not affect histamine-induced dye extravasation
[Cl][La]([Cl])[Cl] [LaCl3],effect on histamine-induced dye extravasation,[1]; pretreatment 250 μg/ear,significantly inhibited dye extravasation
CC/C=C\CC(O)/C=C/C=C\CCCCCCCC(=O)O (stereo not drawn) [13-HOTrE],effect on histamine-induced dye extravasation,[1]; pretreatment 0.1 μg/ear,did not affect histamine-induced dye extravasation
"Cc1c(C(=O)Nc2cccc(C(F)(F)F)c2)cc(-c2ccccc2)n1CCCN1CCOCC1 [HC-067047, reference compound]","colon edema, wet/dry weight ratio",[2],5.0±0.1
same,histologic score of colitis,[2],2.8±0.4
same,recovery from colitis as compared with the colitis group,[3],promoted in recovery from colitis
"CN(C)CCOC(c1ccccc1)c1ccccc1 [diphenhydramine, reference compound]",histamine-induced reduction of TER,HUVECs; 10 μM pretreatment before histamine 10 μM,abrogated
same,histamine-induced NO production,NO production in HUVECs,abrogated
"NC[C@H](O)c1ccc(O)c(O)c1 [norepinephrine, reference compound]",contraction of aorta,mouse aortae,contracted in a concentration-dependent manner
COC(=O)[C@@H](N)CCCNC(=N)N[N+](=O)[O-] [L-NAME],blood pressure,anaphylaxis model mice,106.6±8.8 mmHg
same,body temperature decrease,anaphylaxis model mice,−0.8±0.2 °C
thrombin,change of TER,"HUVECs; 1 U/mL, alone",significantly lowered the TER
